Assay results: paper PMC5218480 (PLoS ONE, 2017)

Test system: MV-4-11 cells
Assay: Gene expression microarray analysis (Affymetrix PrimeView) and GSEA
Format: cell-based, human
Design: RFU PODN (11730768_x_at) / Fold change /veh PODN (11730768_x_at) / RFU LINC00158 (11744669_a_at) / Fold change /veh LINC00158 (11744669_a_at) / RFU DUSP10 (11751237_a_at) / Fold change /veh DUSP10 (11751237_a_at) / RFU ID3 (11757404_x_at) / Fold change /veh ID3 (11757404_x_at) / RFU PLEKHG5 (11737974_s_at) / Fold change /veh PLEKHG5 (11737974_s_at) / RFU LRRC4B (11730491_at) / Fold change /veh LRRC4B (11730491_at) / RFU GIMAP4 (11747438_a_at) / Fold change /veh GIMAP4 (11747438_a_at) / RFU KRT8 (11758183_x_at) / Fold change /veh KRT8 (11758183_x_at) / RFU CNN1 (11734310_a_at) / Fold change /veh CNN1 (11734310_a_at) / RFU VPS37D (11726825_at) / Fold change /veh VPS37D (11726825_at) / RFU C10orf10 (11716522_x_at) / Fold change /veh C10orf10 (11716522_x_at) / RFU KIR2DL2 /// KIR2DL4 /// KIR2DL5A /// KIR2DL5B /// KIR2DS1 /// KIR2DS2 /// KIR2DS3 /// KIR2DS4 /// KIR3DL3 /// KIR3DL3 /// KIR3DS1 (11738374_at) / Fold change /veh KIR2DL2 /// KIR2DL4 /// KIR2DL5A /// KIR2DL5B /// KIR2DS1 /// KIR2DS2 /// KIR2DS3 /// KIR2DS4 /// KIR3DL3 /// KIR3DL3 /// KIR3DS1 (11738374_at) / RFU C1QL1 (11718748_at) / Fold change /veh C1QL1 (11718748_at) / RFU TMPRSS4 (11747572_a_at) / Fold change /veh TMPRSS4 (11747572_a_at) / RFU HAMP (11756126_x_at) / Fold change /veh HAMP (11756126_x_at) / RFU RNFT2 (11725882_a_at) / Fold change /veh RNFT2 (11725882_a_at) / RFU NR4A2 (11747474_a_at) / Fold change /veh NR4A2 (11747474_a_at) / RFU ABCC12 (11746883_a_at) / Fold change /veh ABCC12 (11746883_a_at) / RFU TMEM136 (11760407_x_at) / Fold change /veh TMEM136 (11760407_x_at) / RFU CLDN22 /// WWC2 (11732394_at) / Fold change /veh CLDN22 /// WWC2 (11732394_at) / RFU HLA-DPB1 (11760878_x_at) / Fold change /veh HLA-DPB1 (11760878_x_at) / RFU SPINT1 (11716480_a_at) / Fold change /veh SPINT1 (11716480_a_at) / RFU GAP43 (11754022_s_at) / Fold change /veh GAP43 (11754022_s_at) / RFU A4GNT (11735810_at) / Fold change /veh A4GNT (11735810_at) / RFU PRB3 (11715151_x_at) / Fold change /veh PRB3 (11715151_x_at) / RFU TUBB4B (11761932_at) / Fold change /veh TUBB4B (11761932_at) / RFU CAPN14 (11732068_a_at) / Fold change /veh CAPN14 (11732068_a_at) / RFU TMCC2 (11721928_a_at) / Fold change /veh TMCC2 (11721928_a_at) / RFU IRGQ (11745062_a_at) / Fold change /veh IRGQ (11745062_a_at) / RFU FAM174B (11720279_a_at) / Fold change /veh FAM174B (11720279_a_at) / RFU TMPRSS4 (11748680_a_at) / Fold change /veh TMPRSS4 (11748680_a_at) / RFU FAM212B (11763350_a_at) / Fold change /veh FAM212B (11763350_a_at) / RFU PLEKHG5 (11743358_a_at) / Fold change /veh PLEKHG5 (11743358_a_at) / RFU ZSCAN30 (11745921_a_at) / Fold change /veh ZSCAN30 (11745921_a_at) / RFU CMKLR1 (11741424_a_at) / Fold change /veh CMKLR1 (11741424_a_at) / RFU LOC101060620 /// MAPK8IP1 (11723275_at) / Fold change /veh LOC101060620 /// MAPK8IP1 (11723275_at) / RFU SPTSSB (11747773_x_at) / Fold change /veh SPTSSB (11747773_x_at) / RFU PRSS12 (11739890_at) / Fold change /veh PRSS12 (11739890_at) / RFU BIN1 (11741810_x_at) / Fold change /veh BIN1 (11741810_x_at) / RFU WNT11 (11732464_a_at) / Fold change /veh WNT11 (11732464_a_at) / RFU C10orf10 (11716521_a_at) / Fold change /veh C10orf10 (11716521_a_at) / RFU C5orf56 (11738089_at) / Fold change /veh C5orf56 (11738089_at) / RFU CYB561 (11721691_x_at) / Fold change /veh CYB561 (11721691_x_at) / RFU ANKRD19P (11752326_a_at) / Fold change /veh ANKRD19P (11752326_a_at) / RFU OR2T12 /// OR2T33 /// OR2T8 (11738714_s_at) / Fold change /veh OR2T12 /// OR2T33 /// OR2T8 (11738714_s_at) / RFU VCAN (11748164_a_at) / Fold change /veh VCAN (11748164_a_at) / RFU JSRP1 (11732532_at) / Fold change /veh JSRP1 (11732532_at) / RFU KRTAP10-11 (11738290_x_at) / Fold change /veh KRTAP10-11 (11738290_x_at) / RFU MYO3A (11730013_a_at) / Fold change /veh MYO3A (11730013_a_at) / RFU EBF3 (11725865_a_at) / Fold change /veh EBF3 (11725865_a_at) / RFU CAMK2N1 (11719241_x_at) / Fold change /veh CAMK2N1 (11719241_x_at) / RFU C5orf56 (11738088_a_at) / Fold change /veh C5orf56 (11738088_a_at) / RFU OLFML3 (11715873_a_at) / Fold change /veh OLFML3 (11715873_a_at) / RFU LOC100653217 /// NTM (11731650_a_at) / Fold change /veh LOC100653217 /// NTM (11731650_a_at) / RFU MAPK11 (11762145_a_at) / Fold change /veh MAPK11 (11762145_a_at) / RFU FIZ1 (11724087_x_at) / Fold change /veh FIZ1 (11724087_x_at) / RFU OASL (11726364_x_at) / Fold change /veh OASL (11726364_x_at) / RFU SOX15 (11748057_x_at) / Fold change /veh SOX15 (11748057_x_at) / RFU CD79A (11719716_a_at) / Fold change /veh CD79A (11719716_a_at) / RFU HIST1H1D (11736915_at) / Fold change /veh HIST1H1D (11736915_at) / RFU CASKIN2 (11723855_a_at) / Fold change /veh CASKIN2 (11723855_a_at) / RFU LOC730098 (11760151_x_at) / Fold change /veh LOC730098 (11760151_x_at) / RFU OR4N2 (11742367_at) / Fold change /veh OR4N2 (11742367_at) / RFU PRRT2 (11749266_a_at) / Fold change /veh PRRT2 (11749266_a_at) / RFU SNX32 (11753110_a_at) / Fold change /veh SNX32 (11753110_a_at) / RFU CDHR5 (11726645_a_at) / Fold change /veh CDHR5 (11726645_a_at) / RFU RCAN1 (11760418_a_at) / Fold change /veh RCAN1 (11760418_a_at) / RFU FAM167A (11723789_a_at) / Fold change /veh FAM167A (11723789_a_at) / RFU FAM26E (11764081_at) / Fold change /veh FAM26E (11764081_at) / RFU ISYNA1 (11749810_s_at) / Fold change /veh ISYNA1 (11749810_s_at) / RFU ACY1 (11761880_at) / Fold change /veh ACY1 (11761880_at) / RFU 11764098_at / Fold change /veh 11764098_at / RFU SAMD14 (11745864_x_at) / Fold change /veh SAMD14 (11745864_x_at) / RFU NPB (11741838_a_at) / Fold change /veh NPB (11741838_a_at) / RFU TMPRSS6 (11731388_a_at) / Fold change /veh TMPRSS6 (11731388_a_at) / RFU KRTAP10-2 (11738614_at) / Fold change /veh KRTAP10-2 (11738614_at) / RFU ARHGAP8 /// PRR5-ARHGAP8 (11727945_x_at) / Fold change /veh ARHGAP8 /// PRR5-ARHGAP8 (11727945_x_at) / RFU KRTAP5-7 /// NADSYN1 (11734609_at) / Fold change /veh KRTAP5-7 /// NADSYN1 (11734609_at) / RFU RASL12 (11751679_a_at) / Fold change /veh RASL12 (11751679_a_at) / RFU CDKN2B (11736163_a_at) / Fold change /veh CDKN2B (11736163_a_at) / RFU PRF1 (11729649_at) / Fold change /veh PRF1 (11729649_at) / RFU, ZNF638 /// ZNF638-IT1 / Fold change vs veh, ZNF638 /// ZNF638-IT1 / RFU, PANK3 / Fold change vs veh, PANK3 / RFU, SH3YL1 / Fold change vs veh, SH3YL1 / RFU, ZEB2 / Fold change vs veh, ZEB2 / RFU, NRIP1 / Fold change vs veh, NRIP1 / RFU, PTTG1IP / Fold change vs veh, PTTG1IP / RFU, CAPN2 / Fold change vs veh, CAPN2 / RFU, MED14 / Fold change vs veh, MED14 / RFU, SNORA58 / Fold change vs veh, SNORA58 / RFU, C1orf63 / Fold change vs veh, C1orf63 / RFU, LRRFIP1 / Fold change vs veh, LRRFIP1 / RFU, NDUFAF7 / Fold change vs veh, NDUFAF7 / RFU, SLC12A2 / Fold change vs veh, SLC12A2 / RFU, IBTK / Fold change vs veh, IBTK / RFU, ESF1 / Fold change vs veh, ESF1 / Fold change vs veh, TMEM50B / RFU, TAOK1 / Fold change vs veh, TAOK1 / RFU, ACBD3 / Fold change vs veh, ACBD3 / RFU, TMA16 / Fold change vs veh, TMA16 / RFU, RWDD3 / Fold change vs veh, RWDD3 / RFU, BCAT1 / Fold change vs veh, BCAT1 / RFU, EDEM3 / Fold change vs veh, EDEM3 / RFU, TMEM33 / Fold change vs veh, TMEM33 / RFU, WDR75 / Fold change vs veh, WDR75 / RFU, AHCTF1 / Fold change vs veh, AHCTF1 / RFU, TFRC / Fold change vs veh, TFRC / RFU, ZDHHC17 / Fold change vs veh, ZDHHC17 / RFU, NOM1 / Fold change vs veh, NOM1 / RFU, ARL8B / Fold change vs veh, ARL8B / RFU, ZBTB11 / Fold change vs veh, ZBTB11 / RFU, TAMM41 / Fold change vs veh, TAMM41 / RFU, KIAA1704 /// LOC100996395 / Fold change vs veh, KIAA1704 /// LOC100996395 / RFU, ING1 / Fold change vs veh, ING1 / RFU, TRMT61B / Fold change vs veh, TRMT61B / RFU, FUBP3 / Fold change vs veh, FUBP3 / RFU, TP53 / Fold change vs veh, TP53 / RFU, TNKS2 / Fold change vs veh, TNKS2 / RFU, ZFP14 / Fold change vs veh, ZFP14 / RFU, ACTR2 / Fold change vs veh, ACTR2 / RFU, PPP3R1 / Fold change vs veh, PPP3R1 / RFU, PIK3R1 / Fold change vs veh, PIK3R1 / RFU, HNRNPA1 / Fold change vs veh, HNRNPA1 / RFU, RNF170 / Fold change vs veh, RNF170 / RFU, ZNF28 / Fold change vs veh, ZNF28 / RFU, RNGTT / Fold change vs veh, RNGTT / RFU, OGT / Fold change vs veh, OGT / RFU, BRD1 / Fold change vs veh, BRD1 / RFU, MARS / Fold change vs veh, MARS / RFU, ZNF655 / Fold change vs veh, ZNF655 / RFU, FAHD1 / Fold change vs veh, FAHD1 / RFU, BDP1 / Fold change vs veh, BDP1 / RFU, LRRCC1 / Fold change vs veh, LRRCC1 / RFU, ARID1A / Fold change vs veh, ARID1A / RFU, ZNF146 / Fold change vs veh, ZNF146 / RFU, ZNF330 / Fold change vs veh, ZNF330 / RFU, GPN3 / Fold change vs veh, GPN3 / RFU, C9orf123 / Fold change vs veh, C9orf123 / RFU, N4BP2L2 / Fold change vs veh, N4BP2L2 / RFU, ARFIP1 / Fold change vs veh, ARFIP1 / RFU, FAM179B / Fold change vs veh, FAM179B / RFU, BCL10 / Fold change vs veh, BCL10 / RFU, UHRF1BP1L / Fold change vs veh, UHRF1BP1L / RFU, BET1 / Fold change vs veh, BET1 / RFU, CNOT2 / Fold change vs veh, CNOT2 / RFU, ZNF268 / Fold change vs veh, ZNF268 / Fold change vs veh, ZNF507 / RFU, DGCR2 / Fold change vs veh, DGCR2 / RFU, WDSUB1 / Fold change vs veh, WDSUB1 / Fold change vs veh, HSP90B1 /// MIR3652 / RFU, ADSS / Fold change vs veh, ADSS / RFU, GK / Fold change vs veh, GK / RFU, ZNF148 / Fold change vs veh, ZNF148 / RFU, TAF9 / Fold change vs veh, TAF9 / RFU, SLC1A5 / Fold change vs veh, SLC1A5 / RFU, SLMO2 / Fold change vs veh, SLMO2 / RFU, ABCC4 / Fold change vs veh, ABCC4 / RFU, LOC101060439 /// RAP1B / Fold change vs veh, LOC101060439 /// RAP1B / RFU, RFX7 / Fold change vs veh, RFX7 / RFU, GTPBP10 / Fold change vs veh, GTPBP10 / RFU, CNEP1R1 / Fold change vs veh, CNEP1R1 / RFU, BIVM-ERCC5 /// ERCC5 / Fold change vs veh, BIVM-ERCC5 /// ERCC5 / RFU, ILF3 / Fold change vs veh, ILF3 / RFU 11762660_at / Fold change /veh 11762660_at / RFU VCAN (11757783_s_at) / Fold change /veh VCAN (11757783_s_at) / RFU DDX43 (11728927_at) / Fold change /veh DDX43 (11728927_at) / RFU KRT8 (11758188_x_at) / Fold change /veh KRT8 (11758188_x_at) / RFU NKD1 (11759106_at) / Fold change /veh NKD1 (11759106_at) / RFU SRD5A1 (11742802_a_at) / Fold change /veh SRD5A1 (11742802_a_at) / RFU TPSAB1 /// TPSB2 (11721975_s_at) / Fold change /veh TPSAB1 /// TPSB2 (11721975_s_at) / RFU GSTM3 (11746129_a_at) / Fold change /veh GSTM3 (11746129_a_at) / RFU IL23R (11737362_x_at) / Fold change /veh IL23R (11737362_x_at) / RFU TMEM51 (11727254_a_at) / Fold change /veh TMEM51 (11727254_a_at) / RFU PIWIL2 (11732686_x_at) / Fold change /veh PIWIL2 (11732686_x_at) / RFU ORM1 (11744905_x_at) / Fold change /veh ORM1 (11744905_x_at) / RFU CCDC152 (11743942_at) / Fold change /veh CCDC152 (11743942_at) / RFU ECM1 (11717891_a_at) / Fold change /veh ECM1 (11717891_a_at) / RFU IL23R (11748794_a_at) / Fold change /veh IL23R (11748794_a_at) / RFU TNFAIP8L3 (11732012_x_at) / Fold change /veh TNFAIP8L3 (11732012_x_at) / RFU MBOAT4 (11741988_at) / Fold change /veh MBOAT4 (11741988_at) / RFU 11764193_at / Fold change /veh 11764193_at / RFU TMEM53 (11763286_at) / Fold change /veh TMEM53 (11763286_at) / RFU MAGEB2 (11727129_at) / Fold change /veh MAGEB2 (11727129_at) / RFU TMEM200A (11744735_a_at) / Fold change /veh TMEM200A (11744735_a_at) / RFU CCDC152 (11751479_a_at) / Fold change /veh CCDC152 (11751479_a_at) / RFU FAM211A (11726209_a_at) / Fold change /veh FAM211A (11726209_a_at) / RFU RGS16 (11746705_a_at) / Fold change /veh RGS16 (11746705_a_at) / RFU VCAN (11755009_s_at) / Fold change /veh VCAN (11755009_s_at) / RFU RHOB (11743442_s_at) / Fold change /veh RHOB (11743442_s_at) / RFU RGS16 (11720943_a_at) / Fold change /veh RGS16 (11720943_a_at) / RFU RGS16 (11720944_at) / Fold change /veh RGS16 (11720944_at) / RFU, VPS4B / Fold change vs veh, VPS4B / RFU, CREB1 / Fold change vs veh, CREB1 / RFU, DNAJC13 / Fold change vs veh, DNAJC13 / RFU, GNAQ / Fold change vs veh, GNAQ / RFU, CDK5R1 / Fold change vs veh, CDK5R1 / RFU, ZRANB3 / Fold change vs veh, ZRANB3 / RFU, CUL4A / Fold change vs veh, CUL4A / RFU, CCNY / Fold change vs veh, CCNY / RFU, UFL1 / Fold change vs veh, UFL1 / RFU, COG3 / Fold change vs veh, COG3 / RFU, DIAPH2 / Fold change vs veh, DIAPH2 / RFU, SKA2 / Fold change vs veh, SKA2 / RFU, AFF3 / Fold change vs veh, AFF3 / RFU, LMF1 / Fold change vs veh, LMF1 / RFU, IPO11 / Fold change vs veh, IPO11 / RFU, DFFB / Fold change vs veh, DFFB / RFU, FOXP1 / Fold change vs veh, FOXP1 / RFU, CARD8 / Fold change vs veh, CARD8 / RFU, STRN3 / Fold change vs veh, STRN3 / RFU, ADK / Fold change vs veh, ADK / RFU, RASSF2 / Fold change vs veh, RASSF2 / RFU, WIPF1 / Fold change vs veh, WIPF1 / RFU, LARP1B / Fold change vs veh, LARP1B / RFU, RASA1 / Fold change vs veh, RASA1 / RFU, RB1 / Fold change vs veh, RB1 / RFU, PPFIA1 / Fold change vs veh, PPFIA1 / RFU, MAT2A / Fold change vs veh, MAT2A / RFU, CCT5 / Fold change vs veh, CCT5 / RFU, WDR92 / Fold change vs veh, WDR92 / RFU, CUX1 / Fold change vs veh, CUX1 / RFU, TTC7A / Fold change vs veh, TTC7A / RFU, TMEM135 / Fold change vs veh, TMEM135 / RFU, DEPTOR / Fold change vs veh, DEPTOR / RFU, CPM / Fold change vs veh, CPM / RFU, DNAJB6 / Fold change vs veh, DNAJB6 / RFU, CACNA2D3 / Fold change vs veh, CACNA2D3 / RFU, DTX4 / Fold change vs veh, DTX4 / RFU, TFCP2 / Fold change vs veh, TFCP2 / RFU, GMCL1 /// GMCL1P1 / Fold change vs veh, GMCL1 /// GMCL1P1 / RFU, AEBP2 / Fold change vs veh, AEBP2 / RFU, SNHG1 /// SNORD22 /// SNORD25 /// SNORD26 /// SNORD27 /// SNORD28 /// SNORD29 /// SNORD31 / Fold change vs veh, SNHG1 /// SNORD22 /// SNORD25 /// SNORD26 /// SNORD27 /// SNORD28 /// SNORD29 /// SNORD31 / Fold change (Aza/veh), C12orf56 (ProbeSet 11735607_a_at) / Fold change (ACY-1035/veh), C12orf56 (ProbeSet 11735607_a_at) / Fold change (Aza/veh), FGFR1OP (ProbeSet 11751329_s_at) / Fold change (ACY-1035/veh), FGFR1OP (ProbeSet 11751329_s_at) / Fold change (Aza/veh), VPS36 (ProbeSet 11739960_a_at) / Fold change (ACY-1035/veh), VPS36 (ProbeSet 11739960_a_at) / RFU SYPL1 (11715823_x_at) / Fold change /veh SYPL1 (11715823_x_at) / RFU IGFBP7 (11715501_s_at) / Fold change /veh IGFBP7 (11715501_s_at) / RFU REEP3 (11722064_at) / Fold change /veh REEP3 (11722064_at) / RFU IGLL1 (11728026_x_at) / Fold change /veh IGLL1 (11728026_x_at): dose or concentration left out as unconfirmed
Conditions: MV-4-11 cells, 48 hours

Nc1ncn([C@@H]2O[C@H](CO)[C@@H](O)[C@H]2O)c(=O)n1 [azacitidine]
Fold change /veh ARHGAP8 /// PRR5-ARHGAP8 (11727945_x_at): 0.99
